Reference: PMC3369139, “Preclinical evaluation of two ^68Ga-siderophores as potential radiopharmaceuticals for Aspergillus fumigatus infection imaging” (European Journal of Nuclear Medicine and Molecular Imaging, 2012)
Several values for one entry are separate records, joined by “and”; a condition that tells them apart may be missing. Identical values can stand only once.

Columns and labels:
[1] = test system: A. fumigatus wild-type ATCC46645; assay: In vitro uptake of ^68Ga-siderophores by A. fumigatus cultures; assay type: cell-based, Aspergillus fumigatus; conditions: room temperature
Description: The Aspergillus strain used for in vitro studies was A. fumigatus wild-type ATCC46645 (American Type Culture Collection) cultured at 37 °C in Aspergillus minimal medium, containing 1 % glucose as the carbon source, 20 mM glutamine as the nitrogen source, salts and trace elements, as described previously. Iron-sufficient media contained […] FeSO4. For preparation of iron-deficient media, iron addition was omitted. Iron-deficient conditions were verified by detection of extracellular siderophore production, which is suppressed by iron.
Uptake by A. fumigatus in iron-deficient and iron-sufficient cultures was studied. For the monitoring of uptake over time, ^68Ga-siderophores (5 ng) were incubated in microbial media for 10, 20, 30, 45, 60 and 90 min at room temperature in 96-well plates (Millipore, Billerica, MA). For the monitoring of uptake blocking, excess of ferri-siderophore (Fe-TAFC or Fe-FOXE) and/or sodium azide was used. ^68Ga-siderophores were incubated in iron-deficient and iron-sufficient media for 45 min at room temperature in 96-well plates. The incubation was interrupted in both cases by filtration of the medium and rapid rinsing with ice-cold TRIS buffer. The filters were collected and counted in a γ-counter.

[2] = Log P of ^68Ga-siderophores; assay type: physicochemical; conditions: determined as described previously [20]
Description: (§1) TAFC and FOXE were labelled with ^68Ga using acetate buffer at room temperature for 15 min (TAFC) and at 80 °C for 20 min (FOXE). For all in vitro and in vivo studies, the pH of the final product was adjusted with 1.1 M sodium acetate to pH 6–7. The radiochemical purity, log P, protein binding and stability of ^68Ga-siderophores in various media were determined, as described previously.

A. fumigatus [3] = assay: PET imaging in rat A. fumigatus infection model; assay type: in vivo, Lewis rats; conditions: infected rats, lungs, mean ± sd
Description: (§2) Female or male Lewis rats (2–3 months old), weighing 200–250 g, were treated as described previously. Briefly, the rats received repeated intraperitoneal injections of cyclophosphamide to induce neutropenia before A. fumigatus administration. To prevent bacterial superinfection, the animals were given antibiotics throughout the experiment. Fungal infection was established by intratracheal administration of 100–300 μl of A. fumigatus inoculum in various concentrations (1 × 10^5 to 1 × 10^9 conidia per millilitre). Animals were injected intravenously 1–3 days (depending on the severity of infection) after A. fumigatus administration with ^68Ga-labelled siderophore (10–20 MBq and 1–2 μg of siderophore per rat). The rats were imaged or killed by overdosing with thiopental (Sandoz, Kundl, Austria) 2 h after injection. Various organs and tissues (blood, spleen, kidneys, liver and lungs) were removed and radioactivity was measured in a γ-counter. The excised organs were investigated for the presence of fungi, as described below.
PET images were acquired with an Inveon animal PET/CT scanner (Siemens Preclinical Solutions, Knoxville, TN) with an intrinsic spatial resolution of 1.5 mm. The animals were placed in a prone position. Static PET images were acquired over 30 min starting 30 min after intravenous injection of ^68Ga-siderophore. Dynamic PET imaging was started upon injection and continued up to 60 min after injection. In addition, combined PET/CT scans were performed for anatomical reference. PET emission scans were acquired for 30 min, preceded by CT scans (spatial resolution 113 μm, 80 kV, 500 μA, exposure time 300 ms). After imaging, animals were killed by CO2/O2. Scans were reconstructed using Inveon Acquisition Workplace software (version 1.5; Siemens Preclinical Solutions, Knoxville, TN) using a 3-D ordered subset expectation maximization/maximum a posteriori (OSEM3D/MAP) algorithm with the following parameters: matrix 256 × 256 × 159, pixel size 0.43 × 0.43 × 0.8 mm^3 and a MAP prior β-value of 1.5.

[4] = Protein binding in human serum; assay type: in vitro ADME
Description: as §1

Stability in 0.1 M FeCl3 = assay type: physicochemical
Description: as §1

A. fumigatus [5] = assay: Ex vivo biodistribution in rat A. fumigatus infection model, iron preload; design: species or system Lewis rats
Description: (§3) The A. fumigatus (A29) isolate was grown on Sabouraud dextrose agar (BD) for 5 days at 37 °C, and the conidia were harvested in 2 ml of sterile NaCl by gently rubbing with a pipette tip. The conidia suspension was transferred into a sterile 50 ml plastic tube. After homogenization (vortex) and filtration (40 μm nylon cell strainer; BD), the suspension was counted in a Neubauer chamber and adjusted to the volitional concentration in the range 1 × 10^5 to 1 × 10^9 conidia per millilitre.
as §2
Rats were treated as in the ‘standard’ infection model above, except that iron solution (FerMed; Medice, Iserlohn, Germany) 10 mg/kg was injected intraperitoneally three times (1 week, 4 days and 1 day) before A. fumigatus administration.
(§4) The excised organs were homogenized in a petri dish using a sterile surgical blade and transferred to Sabouraud dextrose agar (BD) plates. The plates were incubated at 37 °C and examined daily for 7 days. […] Severe infection was defined as the presence of severe fungal growth 1 day after incubation, mild infection was defined as the presence of minor growth up to 3 days after incubation, and no infection was defined as lack of growth within 1 week of incubation.

[6] = Metabolic stability in normal Balb/c mice (RP-HPLC of urine, blood, liver and kidney homogenates); assay type: in vivo; conditions: 30 min p.i., % intact on RP-HPLC
Description: Urine, blood, liver and kidneys of normal Balb/c mice injected with ^68Ga-siderophores and treated as described previously were collected 30 min after injection. The urine sample was directly injected onto the RP-HPLC column. Blood samples were precipitated with acetonitrile and centrifuged for 2 min, and the supernatant was injected onto the RP-HPLC column. Liver and kidneys were washed in the ice-cold TRIS buffer and liquidized using a mixer in a falcon tube containing 1 ml of TRIS buffer. The liver and kidney homogenates obtained were mixed with acetonitrile and centrifuged for 2 min, and the supernatant was injected onto the RP-HPLC column. In all cases 1 min fractions of the column eluate were collected and measured in a γ-counter. Samples were not collected at 90 min after injection because the measured activity was already low in the samples obtained 30 min after injection. All metabolic studies were performed using a previously described HPLC method.

A. fumigatus [7] = assay: Ex vivo biodistribution in rat A. fumigatus infection model, standard; design: species or system Lewis rats
Description: as §3, §2, §4

Stability in 6 mM DTPA = assay type: physicochemical
Description: as §1

[8] = Biodistribution in normal Balb/c mice; assay type: in vivo; conditions: normal noninfected Balb/c mice, i.v. tail vein
Description: Normal noninfected Balb/c mice (female, 6 weeks old) were injected with ^68Ga-siderophore (2 MBq and 0.1–0.2 μg of siderophore per mouse) into the tail vein. Animals were killed by cervical dislocation 30 min and 90 min after injection. The organs and tissues (blood, spleen, pancreas, stomach, intestines, kidneys, liver, heart, lungs, muscle and femur) were removed and radioactivity was counted in a γ-counter. The results are expressed as percentage of injected dose per gram of tissue.

Stability in human serum = assay type: in vitro ADME
Description: as §1

[9] = iron preload model, 2 h after injection

O=C1CCC(=O)N([O-])CCCCCNC(=O)CCC(=O)N([O-])CCCCCNC(=O)CCC(=O)N([O-])CCCCCN1.[68Ga+3] [^68Ga-FOXE, ferrioxamine E]
Uptake by A. fumigatus in iron-deficient cultures ([1]; 5 ng ^68Ga-siderophore, 10-90 min, 96-well plates, filtration, γ-counter): rapid uptake | Blocking of uptake with excess of ferri-siderophore and/or sodium azide ([1]; iron-deficient cultures, 45 min incubation): could be blocked | Log P [2]: −1.65 | SUV (A. fumigatus [3]; calculated from PET imaging studies, n=10 (table)): 1.00 ± 0.81 (n=10) | Target/non-target ratio (A. fumigatus [3]; calculated from all PET imaging studies, n=13): 6.64 ± 2.91 (n=13) | Protein binding (%) ([4]; incubation time 30 min): 0.27% | Protein binding (%) ([4]; incubation time 60 min): 0.24% | Protein binding (%) ([4]; incubation time 120 min): 0.53% | Stability in 0.1-M FeCl3 (%) (Stability in 0.1 M FeCl3; incubation time 30 min): 92.9% | Stability in 0.1-M FeCl3 (%) (Stability in 0.1 M FeCl3; incubation time 60 min): 91.8% | Stability in 0.1-M FeCl3 (%) (Stability in 0.1 M FeCl3; incubation time 120 min): 94.5% | Severe infection (%ID/g - lungs) (A. fumigatus [5]; iron preload model (10 mg/kg i.p. three times), severely infected rats, lungs 2 h after injection, n in cell): 1.72 (n=1) %ID/g | Lung/blood ratio, control (A. fumigatus [5]; [9]): 0.64 (n=2) | Lung/blood ratio, mild infection (A. fumigatus [5]; [9]): 0.81 (n=2) | Lung/blood ratio, severe infection (A. fumigatus [5]; [9]): 2.41 (n=1) | Lung/kidneys ratio, control (A. fumigatus [5]; [9]): 0.06 (n=2) | Lung/kidneys ratio, mild infection (A. fumigatus [5]; [9]): 0.12 (n=2) | Lung/kidneys ratio, severe infection (A. fumigatus [5]; [9]): 0.11 (n=1) | Lung/liver ratio, control (A. fumigatus [5]; [9]): 0.58 (n=2) | Lung/liver ratio, mild infection (A. fumigatus [5]; [9]): 1.17 (n=2) | Lung/liver ratio, severe infection (A. fumigatus [5]; [9]): 5.93 (n=1) | Mild infection (%ID/g - lungs) (A. fumigatus [5]; iron preload model, mildly infected rats, lungs 2 h after injection, n in cell): 0.14 (n=2) %ID/g | Control (%ID/g - lungs) (A. fumigatus [5]; iron preload model, rats showing no infection, lungs 2 h after injection, n in cell): 0.04 (n=2) %ID/g | Stability in kidney homogenate (%) [6]: 97.6% | Stability in liver homogenate (%) [6]: 71.3% | Stability in urine (%) ([6]; γ-counter): 95.9% | Stability in blood (%) ([6]; acetonitrile precipitation): 97.7% | Lung/blood ratio, control (mean ± sd) (A. fumigatus [7]; 2 h after injection): 1.48 ± 0.33 (n=5) | Lung/blood ratio, mild infection (mean ± sd) (A. fumigatus [7]; 2 h after injection): 5.45 ± 5.57 (n=4) | Lung/blood ratio, severe infection (mean ± sd) (A. fumigatus [7]; 2 h after injection): 62.35 ± 77.98 (n=5) | Lung/kidneys ratio, control (mean ± sd) (A. fumigatus [7]; 2 h after injection): 0.07 ± 0.02 (n=5) | Lung/kidneys ratio, mild infection (mean ± sd) (A. fumigatus [7]; 2 h after injection): 0.38 ± 0.42 (n=4) | Lung/kidneys ratio, severe infection (mean ± sd) (A. fumigatus [7]; 2 h after injection): 3.33 ± 2.85 (n=5) | Lung/liver ratio, control (mean ± sd) (A. fumigatus [7]; 2 h after injection): 0.87 ± 0.27 (n=5) | Lung/liver ratio, mild infection (mean ± sd) (A. fumigatus [7]; 2 h after injection): 5.45 ± 5.85 (n=4) | Lung/liver ratio, severe infection (mean ± sd) (A. fumigatus [7]; 2 h after injection): 47.79 ± 39.48 (n=5) | Mild infection (%ID/g - lungs) (mean ± sd) (A. fumigatus [7]; mildly infected rats, lungs ex vivo 2 h after injection, n in cell): 0.48 ± 0.54 %ID/g and 0.48 ± 0.54 (n=4) %ID/g | Control (%ID/g - lungs) (mean ± sd) (A. fumigatus [7]; rats showing no infection, lungs ex vivo 2 h after injection, n in cell): 0.04 ± 0.02 %ID/g and 0.04 ± 0.02 (n=5) %ID/g | Severe infection (%ID/g - lungs) (mean ± sd) (A. fumigatus [7]; severely infected rats, lungs ex vivo 2 h after injection, γ-counter, n in cell): 3.45 ± 1.00 (n=5) %ID/g | Stability in 6-mM DTPA (%) (Stability in 6 mM DTPA; incubation time 30 min): 94.3% | Stability in 6-mM DTPA (%) (Stability in 6 mM DTPA; incubation time 60 min): 93.8% | Stability in 6-mM DTPA (%) (Stability in 6 mM DTPA; incubation time 120 min): 93.2% | Blood level ([8]; 30 min after injection): 2.4 ± 0.86 %ID/g | Intestinal accumulation ([8]; 30 min after injection): 4.6 ± 1.42 %ID/g | Intestinal accumulation ([8]; 90 min after injection): 2.4 ± 0.85 %ID/g | Stability in all of the tested media (Stability in human serum; human serum, 0.1 M FeCl3 and 6 mM DTPA, summary bound over all media): ≥ 90% | Stability in human serum (%) (Stability in human serum; incubation time 30 min): 99.9% | Stability in human serum (%) (Stability in human serum; incubation time 60 min): 99.9% | Stability in human serum (%) (Stability in human serum; incubation time 120 min): 99.9%
